System: B16F10 melanoma tumors
Assay: Subcutaneous melanoma tumor model, in vivo transfection with CAT reporter gene
Parameters: species or system BALB/C mice
Details: cytofectin/CAT plasmid complex injected into tumor, tumors collected after forty-eight hours; averages; FIG. 3
Procedure: A) General Subcutaneous Tumor Transfection Assay. Tumors are prepared by injecting a suspension of tumor cells subcutaneously on the side of a mouse strain compatible with the specific tumor type. The tumors are periodically measured. Once the tumors reach a size suitable for injection, the tumor volume is approximated based on the measured diameter assuming a spherical tumor. A complex of the cytofectin compound to be evaluated with a plasmid encoding a reporter gene (e.g., CAT) in a volume of saline equal to the volume of the tumor to be treated is then injected at a flow rate optimized for the particular tumor type. After an appropriate time, the tumors are collected, frozen and then ground up. The reporter gene product is subsequently extracted and the quantity expressed is determined using extraction and assay conditions appropriate for the particular gene product. A variety of tumor types may be evaluated using this general technique. […]
B) Subcutaneous Melanoma Tumor Model. […] When the tumors reached 4.5 mm to 7.0 mm in diameter, the volume of each individual tumor was calculated by measuring the diameter of the tumor and assuming a spherical tumor. For each individual tumor, a volume of the cytofectin/CAT plasmid complex in saline equivalent to the calculated volume of the tumor was injected into the tumor at a rate of 2 ml/min. […] CAT activity was quantitated as described below. […]

Structure (SMILES)	CAT activity (relative transgene expression vs pDNA transfection alone)
CCCCCCCCCCCCCCOCC(C[N+](C)(C)CCCNC(=O)NCCCCNC(=O)NCCC[N+](C)(C)CC(COCCCCCCCCCCCCCC)OCCCCCCCCCCCCCC)OCCCCCCCCCCCCCC (centres unmarked) [SBGU-DMRIE]	greater activity than the naked DNA (pDNA) control
CCCCCCCCCCCCCCOCC(C[N+](C)(C)CCCNC(=O)NCCCCCCNC(=O)NCCC[N+](C)(C)CC(COCCCCCCCCCCCCCC)OCCCCCCCCCCCCCC)OCCCCCCCCCCCCCC (centres unmarked) [SHGU-DMRIE]	greater activity than the naked DNA (pDNA) control
